Reference: PubChem BioAssay (NCI)
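Following 48 hours of exposure in 96-well plates, responses at five concentrations were used to interpolate endpoints linearly. TGI denotes the concentration required for complete inhibition of growth.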

Tests used:
Experiment in all cases: DTP human tumour cell line panel, 48 h
[1] = system: DMS 114 small cell lung
[2] = system: HCT-116 colon
[3] = system: RXF 393 renal
[4] = system: SN12C renal
[5] = system: SNB-78 CNS
[6] = system: TK-10 renal
[7] = system: DMS 273 small cell lung
[8] = system: KM20L2 colon
[9] = system: BT-549 breast
[10] = system: MCF7 breast
[11] = system: T-47D breast

Compound N#C/C(=C1\SC(N=Nc2ccccc2)C(=O)N1c1ccccc1)c1nc2ccccc2[nH]1 (stereo not drawn) has a TGI [1] greater than 100 µM, a TGI [2] greater than 100 µM and a TGI [3] of 97.6 µM. The TGI [4] was greater than 100 µM, the TGI [5] was greater than 100 µM and the TGI [6] was greater than 100 µM. The TGI [7] was greater than 100 µM and the TGI [8] was greater than 100 µM.

For Cn1c(=O)c2nc(-c3ccc(Cl)cc3)oc2n(C)c1=O, the TGI [1] was greater than 100 µM, the TGI [2] was greater than 100 µM and the TGI [3] was greater than 100 µM. It also gave a TGI [4] greater than 100 µM, a TGI [5] greater than 100 µM and a TGI [6] greater than 100 µM. It also gave a TGI [7] greater than 100 µM and a TGI [8] greater than 100 µM.

Nc1ccn(C2OC(COC(=O)C34CC5CC(CC(C5)C3)C4)C(O)C2O)c(=O)n1 (stereo not drawn) gave a TGI [1] greater than 100 µM, a TGI [2] greater than 100 µM and a TGI [3] greater than 100 µM. It also gave a TGI [9] greater than 100 µM, a TGI [4] greater than 100 µM and a TGI [5] greater than 100 µM. The TGI [6] was greater than 100 µM, the TGI [10] was greater than 100 µM and the TGI [11] was greater than 100 µM. The TGI [7] was greater than 100 µM and the TGI [8] was greater than 100 µM.

In the case of COC(=O)C(Cc1nc2ccccc2[nH]c1=O)C(=O)C(=O)Nc1ccc([N+](=O)[O-])cc1[N+](=O)[O-] (stereo not drawn), the TGI [1] is reported as 35 µM, the TGI [2] is reported as 46.5 µM and the TGI [3] is reported as 36.8 µM. For the same compound, the TGI [4] was 50.6 µM, the TGI [5] was greater than 100 µM and the TGI [6] was 61.4 µM. The TGI [7] was 47.5 µM and the TGI [8] was 38.3 µM.

Compound O=c1c2cccc3cccc(c4n1CCN=4)c32 has a TGI [1] greater than 100 µM, a TGI [2] greater than 100 µM and a TGI [3] greater than 100 µM. For the same compound, the TGI [4] was greater than 100 µM, the TGI [5] was greater than 100 µM and the TGI [6] was 69.1 µM. For the same compound, the TGI [7] was greater than 100 µM and the TGI [8] was greater than 100 µM.
